Data from US20240140957A1, “BRIDGED COMPOUNDS AS KRAS G12D INHIBITOR AND DEGRADER AND THE USE THEREOF” (BeiGene Switzerland GmbH, priority 2021, published 2024).

Legend:
[1] = target: GDP-loaded KRAS G12D (Homo sapiens, UniProt P01116, G12D); assay: KRAS G12D Probe Displacement Assay; assay type: binding; conditions: KRAS G12D 0.5 nM, biotinylated probe 2 4 nM; read-out: KRAS G12D Probe Displacement Assay IC50
[2] = target: GDP-loaded WT KRAS (Homo sapiens, UniProt P01116); assay: KRAS WT Probe Displacement Assay; assay type: binding; conditions: WT KRAS 3 nM, biotinylated probe 1 60 nM; read-out: KRAS WT Probe Displacement Assay IC50
[3] = system: pERK1/2 (THR202/TYR204) in AsPC-1 cells; assay: pERK Assay (HTRF) in AsPC-1 cells; assay type: cell-based; conditions: Homo sapiens, ASPC1, 2 h compound treatment

Sequence of GDP-loaded KRAS G12D (P01116 1-188 isoform P01116-2 G12D): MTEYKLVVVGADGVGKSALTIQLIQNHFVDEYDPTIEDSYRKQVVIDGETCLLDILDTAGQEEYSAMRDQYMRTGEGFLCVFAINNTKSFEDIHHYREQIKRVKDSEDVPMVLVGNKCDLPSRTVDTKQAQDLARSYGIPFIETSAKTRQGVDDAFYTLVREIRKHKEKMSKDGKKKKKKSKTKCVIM
Sequence of GDP-loaded WT KRAS (P01116 1-188 isoform P01116-2): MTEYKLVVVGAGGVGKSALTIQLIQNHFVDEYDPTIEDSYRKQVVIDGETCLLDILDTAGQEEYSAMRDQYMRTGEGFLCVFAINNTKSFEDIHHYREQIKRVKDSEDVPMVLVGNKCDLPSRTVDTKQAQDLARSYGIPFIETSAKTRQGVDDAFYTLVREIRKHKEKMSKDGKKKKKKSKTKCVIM

SMILES | IC50 [1] | IC50 [2] | IC50 [3]
CCc1cc2c(N3CC4CCC(C3)N4)nc(OC[C@@]34CCCN3C[C@H](F)C4)nc2c(F)c1-c1ccc(F)c2sc(N)nc12 [Example E67, 4-(4-(3,8-diazabicyclo[3.2.1]octan-3-yl)-6-ethyl-8-fluoro-2-(((2R,7aS)-2-fluorotetrahydro-1H-pyrrolizin-7a(5H)-yl)methoxy)quinazolin-7-yl)-7-fluorobenzo[d]thiazol-2-amine] | 0.45 nM | 9.9 nM | 95 nM
CN(C)CC1(COc2nc(N3CC4CCC(C3)N4)c3cc(Cl)c(-c4ccc(F)c5sc(N)nc45)c(F)c3n2)CCC1 [Example E68, 4-(4-(3,8-diazabicyclo[3.2.1]octan-3-yl)-6-chloro-2-((1-((dimethylamino)-methyl)cyclobutyl)methoxy)-8-fluoroquinazolin-7-yl)-7-fluorobenzo[d]thiazol-2-amine] | 0.58 nM | 45 nM | 590 nM
C=C(C)c1cc2c(N3CC4CCC(C3)N4)nc(OC[C@@]34CCCN3C[C@H](F)C4)nc2c(F)c1-c1ccc(F)c2sc(N)nc12 [Example E69, 4-(4-(3,8-diazabicyclo[3.2.1]octan-3-yl)-8-fluoro-2-(((2R,7aS)-2-fluorotetrahydro-1H-pyrrolizin-7a(5H)-yl)methoxy)-6-(prop-1-en-2-yl)quinazolin-7-yl)-7-fluorobenzo[d]thiazol-2-amine] | 0.72 nM | 72 nM | 216 nM
CN(C)CC1(COc2nc(N3CC4CCC(C3)N4)c3cc(Cl)c(-c4ccc(F)c5sc(N)nc45)c(F)c3n2)CC1 [Example E70, 4-(4-(3,8-diazabicyclo[3.2.1]octan-3-yl)-6-chloro-2-((1-((dimethylamino)methyl)cyclopropyl)methoxy)-8-fluoroquinazolin-7-yl)-7-fluorobenzo[d]thiazol-2-amine] | 0.35 nM | 32 nM | 927 nM
CC(C)c1cc2c(N3CC4CCC(C3)N4)nc(OC[C@@]34CCCN3C[C@H](F)C4)nc2c(F)c1-c1ccc(F)c2sc(N)nc12 [Example E71, 4-(4-(3,8-diazabicyclo[3.2.1]octan-3-yl)-8-fluoro-2-(((2R,7aS)-2-fluorotetrahydro-1H-pyrrolizin-7a(5H)-yl)methoxy)-6-isopropylquinazolin-7-yl)-7-fluorobenzo[d]thiazol-2-amine] | 0.59 nM | 37.8 nM | 137 nM
C[C@@H](CN1CCC(F)CC1(C)C)Oc1nc(N2CC3CCC(C2)N3)c2cc(C(F)(F)F)c(-c3ccc(F)c4sc(N)nc34)c(F)c2n1 (stereo partly drawn) [Example E72, 4-(4-(3,8-diazabicyclo[3.2.1]octan-3-yl)-8-fluoro-2-(((2S)-1-(4-fluoro-2,2-dimethylpiperidin-1-yl)propan-2-yl)oxy)-6-(trifluoromethyl)quinazolin-7-yl)-7-fluorobenzo[d]thiazol-2-amine] | 3.9 nM | 120 nM | 1080 nM
Cc1ccc(-c2c(C(F)(F)F)cc3c(N4CC5CCC(C4)N5)nc(OC[C@@]45CCCN4C[C@H](F)C5)nc3c2F)c2nc(N)sc12 [Example E73, 4-(4-(3,8-diazabicyclo[3.2.1]octan-3-yl)-8-fluoro-2-(((2R,7aS)-2-fluorotetrahydro-1H-pyrrolizin-7a(5H)-yl)methoxy)-6-(trifluoromethyl)quinazolin-7-yl)-7-methylbenzo[d]thiazol-2-amine] | 0.57 nM | 15.5 nM | 68 nM
Nc1nc2c(-c3c(C(F)(F)F)cc4c(N5CC6CC(C5)N6)nc(OC[C@@]56CCCN5C[C@H](F)C6)nc4c3F)ccc(F)c2s1 [Example E74, 4-(4-(3,6-diazabicyclo[3.1.1]heptan-3-yl)-8-fluoro-2-(((2R,7aS)-2-fluorotetrahydro-1H-pyrrolizin-7a(5H)-yl)methoxy)-6-(trifluoromethyl)quinazolin-7-yl)-7-fluorobenzo[d]thiazol-2-amine] | 0.42 nM | 4.8 nM | 349 nM
Nc1nc2c(-c3c(Cl)cc4c(N5CC6CCC(C5)N6)nc(OC[C@@]56CCCN5C[C@H](F)C6)nc4c3F)c(F)cc(F)c2s1 [Example E75, 4-(4-(3,8-diazabicyclo[3.2.1]octan-3-yl)-6-chloro-8-fluoro-2-(((2R,7aS)-2-fluorotetrahydro-H-pyrrolizin-7a(5H)-yl)methoxy)quinazolin-7-yl)-5,7-difluorobenzo[d]thiazol-2-amine] | 0.23 nM | 1.8 nM | 40 nM
Cc1c(-c2ccc(F)c3sc(N)nc23)c(C(F)(F)F)cc2c(N3CC4CCC(C3)N4)nc(OC[C@@]34CCCN3C[C@H](F)C4)nc12 [Example E76, 4-(4-(3,8-diazabicyclo[3.2.1]octan-3-yl)-2-(((2R,7aS)-2-fluorotetrahydro-1H-pyrrolizin-7a(5H)-yl)methoxy)-8-methyl-6-(trifluoromethyl)quinazolin-7-yl)-7-fluorobenzo[d]thiazol-2-amine] | 0.12 nM | 4.8 nM | 58 nM
Cc1cc(N)nc(-c2c(C(F)(F)F)cc3c(N4CC5CCC(C4)N5)nc(OC[C@@]45CCCN4C[C@H](F)C5)nc3c2F)c1C(F)(F)F [Example E77, 6-(4-(3,8-diazabicyclo[3.2.1]octan-3-yl)-8-fluoro-2-(((2R,7aS)-2-fluorotetrahydro-1H-pyrrolizin-7a(5H)-yl)methoxy)-6-(trifluoromethyl)quinazolin-7-yl)-4-methyl-5-(trifluoromethyl)pyridin-2-amine] | 0.52 nM | 33 nM | 122 nM
Cc1c(F)c(N)nc(-c2c(Cl)cc3c(N4CC5CCC(C4)N5)nc(OC[C@@]45CCCN4C[C@H](F)C5)nc3c2F)c1C(F)(F)F [Example E78, 6-(4-(3,8-diazabicyclo[3.2.1]octan-3-yl)-6-chloro-8-fluoro-2-(((2R,7aS)-2-fluorotetrahydro-1H-pyrrolizin-7a(5H)-yl)methoxy)quinazolin-7-yl)-3-fluoro-4-methyl-5-(trifluoromethyl)pyridin-2-amine] | 0.99 nM | 101 nM | 159 nM
Cc1cc(N)nc(-c2c(F)cc3c(N4CC5CCC(C4)N5)nc(OC[C@@]45CCCN4C[C@H](F)C5)nc3c2F)c1C(F)(F)F [Example E79, 6-(4-(3,8-diazabicyclo[3.2.1]octan-3-yl)-6,8-difluoro-2-(((2R,7aS)-2-fluorotetrahydro-1H-pyrrolizin-7a(5H)-yl)methoxy)quinazolin-7-yl)-4-methyl-5-(trifluoromethyl) pyridin-2-amine] | 1.1 nM | 178 nM | 153 nM
Nc1cc(Cl)c(C(F)(F)F)c(-c2c(Cl)cc3c(N4CC5CCC(C4)N5)nc(OC[C@@]45CCCN4C[C@H](F)C5)nc3c2F)c1 [Example E80, 3-(4-(3,8-diazabicyclo[3.2.1]octan-3-yl)-6-chloro-8-fluoro-2-(((2R,7aS)-2-fluorotetrahydro-1H-pyrrolizin-7a(5H)-yl)methoxy)quinazolin-7-yl)-5-chloro-4-(trifluoromethyl)aniline] | 0.66 nM | 46 nM | 307 nM
Oc1cccc(F)c1-c1c(Cl)cc2c(N3CC4CCC(C3)N4)nc(OC[C@@]34CCCN3C[C@H](F)C4)nc2c1F [Example E81, 2-(4-(3,8-diazabicyclo[3.2.1]octan-3-yl)-6-chloro-8-fluoro-2-(((2R,7aS)-2-fluorotetrahydro-1H-pyrrolizin-7a(5H)-yl)methoxy)quinazolin-7-yl)-3-fluorophenol] | 6.9 nM | 990 nM | 2380 nM
Nc1nc2c(-c3c(C(F)(F)F)cc4c(N5CC6CCC(C5)N6)nc(OC[C@@]56CCCN5C[C@H](F)C6)nc4c3Cl)ccc(Cl)c2s1 [Example E82, 4-(4-(3,8-diazabicyclo[3.2.1]octan-3-yl)-8-chloro-2-(((2R,7aS)-2-fluorotetrahydro-1H-pyrrolizin-7a(5H)-yl)methoxy)-6-(trifluoromethyl)quinazolin-7-yl)-7-chlorobenzo[d]thiazol-2-amine] | 0.3 nM | 5 nM | 64 nM
Nc1nc2c(-c3c(C(F)(F)F)cc4c(N5CC6CCC(C5)N6)nc(OC[C@@]56CCCN5C[C@H](F)C6)nc4c3F)ccc(Cl)c2s1 [Example E83, 4-(4-(3,8-diazabicyclo[3.2.1]octan-3-yl)-8-fluoro-2-(((2R,7aS)-2-fluorotetrahydro-1H-pyrrolizin-7a(5H)-yl)methoxy)-6-(trifluoromethyl)quinazolin-7-yl)-7-chlorobenzo[d]thiazol-2-amine] | 0.13 nM | 3.8 nM | 61 nM
Nc1nc2c(-c3c(C(F)(F)F)cc4c(N5CC6CCC(C5)N6)nc(OC[C@@]56CCCN5C[C@H](F)C6)nc4c3F)c(F)cc(F)c2s1 [Example E84, 4-(4-(3,8-diazabicyclo[3.2.1]octan-3-yl)-8-fluoro-2-(((2R,7aS)-2-fluorotetrahydro-1H-pyrrolizin-7a(5H)-yl)methoxy)-6-(trifluoromethyl)quinazolin-7-yl)-5,7-difluorobenzo[d]thiazol-2-amine] | 0.36 nM | 2.4 nM | 28 nM
Nc1nc2c(-c3c(C(F)(F)F)cc4c(N5CC6CCC(C5)N6)nc(OC[C@@]56CCCN5C[C@H](F)C6)nc4c3F)cc(F)c(F)c2s1 [Example E85, 4-(4-(3,8-diazabicyclo[3.2.1]octan-3-yl)-8-fluoro-2-(((2R,7aS)-2-fluorotetrahydro-1H-pyrrolizin-7a(5H)-yl)methoxy)-6-(trifluoromethyl)quinazolin-7-yl)-6,7-difluorobenzo[d]thiazol-2-amine] | 0.21 nM | 5.6 nM | 124 nM
